From paper PMC5566973 (Frontiers in Pharmacology, 2017)
Read-outs that look alike come from different tables or passages of the source.

Legend:
[1] = system: ATP (adenosine triphosphate); assay: Bidirectional transport in MDCK cell monolayers with selective transporter inhibitors or substrates; format: in vitro ADME, canine; settings: dog, with NaN3 10 mM, + NaN3 10 mM (ATP)
Description: (§1) Caco-2, MDCK and MDCK-MRP2 cells were donated by Prof. Yan Xie and Yueming Ma from Shanghai University of Traditional Chinese Medicine. The cells were grown in culture dishes (Corning® Costar, Cambridge, MA, USA) using DMEM supplemented with 10% FBS, 1% NEAA and 1% penicillin-streptomycin solution. The cells were cultured in 5% CO2 and […] with 90% relative humidity at 37°C. The medium was replaced every other day during incubation. The cells were passaged every 3–4 days between 70 and 80% confluence at a 1:5 split ratio using 0.25% trypsin-EDTA. For the transport experiments, the cells from passages between 30 and 45 were seeded at 1 × 10^5 cells/cm^2 onto permeable polycarbonate inserts (0.45 μm pore size, seeding surface of 0.6 cm^2, Millipore, MA, USA) in 24-well plastic plates. The media in the culture plates were changed every other day for the first week after seeding and were replaced daily afterward. […] The cells were used for the transport experiments 21–28 (Caco-2) or 5–7 (MDCK and MDCK-MRP2) days after seeding, and only monolayers with a TEER-value above 420 Ω cm^2 were used during the studies.
(§2) The apical (AP) and basolateral (BL) sides are typical of polarized Caco-2, MDCK and MDCK-MRP2 epithelial cells. Before the experiments, the polarized cell monolayers were washed twice with warm HBSS solution and subsequently preincubated (37°C, 30 min). Afterward, HBSS solution on both sides of the cell monolayers was removed using a mini desktop vacuum pump. […] The final DMSO concentration in the HBSS or drug mixture was below 0.5%. The monolayers were incubated at 37°C, and 100 μL samples were taken at 30, 60, 90, and 120 min from the acceptor compartment and immediately replaced with the same volume of prewarmed fresh blank HBSS. TEER measurements for assessing the membrane integrity took place before and after the experiments.
(§3) The apparent permeability coefficients (Papp) and ER were calculated as Equations (2) and (3): […]
(§4) where dQ/dt is the steady-state flux, A is the membrane surface area, and C0 is the initial drug concentration in the donor compartment. PappBA is the Papp-value measured in BL to AP direction and PappAB is the Papp-value measured in AP to BL direction. It indicated the involvement of an active transport process when the ER-value is above 1.5 (Hubatsch et al., [2007]).

BCRP = assay: as above; format: in vitro ADME, canine; settings: dog; for efflux ratio at 120 min, 2 μM: read-out: ER
Description: as §1, §2, §3, §4

Na+/K+-ATPase = assay: as above; format: in vitro ADME, canine; settings: dog, with sodium vanadate 0.05 mM (50 μM), + Sodium vanadate 0.05 mM (Na^+)
Description: as §1, §2, §3, §4

MDR1 = assay: as above; format: in vitro ADME, canine; settings: dog; for efflux ratio at 120 min, 2 μM: read-out: ER
Description: as §1, §2, §3, §4

OATs = assay: as above; format: in vitro ADME, canine; settings: dog, with cimetidine 0.05 mM (50 μM), + Cimetidine 0.05 mM (OATs)
Description: as §1, §2, §3, §4

MRP2 = assay: as above; format: in vitro ADME, canine; settings: dog; for efflux ratio at 120 min, 2 μM: read-out: ER
Description: as §1, §2, §3, §4

MDCK cell monolayers = assay: as above; format: in vitro ADME, canine; settings: 2 μM
Description: as §1, §2, §3, §4

SGLT1 = assay: as above; format: in vitro ADME, canine; settings: dog, with phloridzin 0.5 mM, + Phloridzin 0.5 mM (SGLT1)
Description: as §1, §2, §3, §4

OCTs/OCTNs = assay: as above; format: in vitro ADME, canine; settings: dog, with TEA 5 mM, + TEA 5 mM (OCTs/OCTNs)
Description: as §1, §2, §3, §4

[2] = rats, oral total alkaloid extracts from P. harmala 140 mg/kg; ref Zhang, 2013; Shi et al., 2014; cited from earlier work
[3] = parameters: method as in Zhang, 2013; Shi et al., 2014; settings: dogs, oral total alkaloid extracts from P. harmala 140 mg/kg; ref Zhang, 2013; Shi et al., 2014; cited from earlier work
[4] = with Ko143 0.01 mM (10 μM), + Ko143 0.01 mM (BCRP)
[5] = with apigenin 0.025 mM (25 μM), + Apigenin 0.025 mM (BCRP)
[6] = with quinidine 0.1 mM (100 μM), + Quinidine 0.1 mM (MDR1)
[7] = with verapamil 0.1 mM (100 μM), + Verapamil 0.1 mM (MDR1)
[8] = with MK571 0.05 mM (50 μM), + MK571 0.05 mM (MRP2)
[9] = with probenecid 0.2 mM (200 μM), + Probenecid 0.2 mM (MRP2)
[10] = + Sodium vanadate 0.05 mM (Na^+)
[11] = Control (no inhibitor or substrate)

## COc1ccc2c(c1)[nH]c1c(C)nccc12 [Harmine]
[1]
  Papp A→B at 120 min, 2 μM: 4.02 ± 0.18 ×10⁻⁶ cm/s
  Papp B→A at 120 min, 2 μM: 5.94 ± 0.63 ×10⁻⁶ cm/s
BCRP; [4]
  Papp B→A at 120 min, 2 μM: 7.05 ± 0.16 ×10⁻⁶ cm/s
BCRP; [5]
  Papp B→A at 120 min, 2 μM: 6.83 ± 1.01 ×10⁻⁶ cm/s
Na+/K+-ATPase
  Papp A→B at 120 min, 2 μM: 3.87 ± 0.27 ×10⁻⁶ cm/s
  Papp B→A at 120 min, 2 μM: 5.22 ± 0.97 ×10⁻⁶ cm/s
MDR1; [6]
  Papp A→B at 120 min, 2 μM: 4.43 ± 0.32 ×10⁻⁶ cm/s
  Papp B→A at 120 min, 2 μM: 7.39 ± 0.32 ×10⁻⁶ cm/s
MDR1; [7]
  Papp B→A at 120 min, 2 μM: 7.67 ± 0.21 ×10⁻⁶ cm/s
OATs
  Papp A→B at 120 min, 2 μM: 4.74 ± 0.13 ×10⁻⁶ cm/s
MRP2; [8]
  Papp A→B at 120 min, 2 μM: 5.14 ± 0.1 ×10⁻⁶ cm/s
  Papp B→A at 120 min, 2 μM: 6.67 ± 0.37 ×10⁻⁶ cm/s
MRP2; [9]
  Papp A→B at 120 min, 2 μM: 5.21 ± 0.26 ×10⁻⁶ cm/s
MDCK cell monolayers; + Apigenin 0.025 mM (BCRP)
  Modulatory effect: −
  PappAB: 4.48 ± 0.24 1 × 10^−6 cm/s
MDCK cell monolayers; + Cimetidine 0.05 mM (OATs)
  Modulatory effect: −
  PappBA: 7.43 ± 0.62 1 × 10^−6 cm/s
MDCK cell monolayers; + ES 0.05 mM (OATPs)
  Modulatory effect: −
  PappAB: 4.59 ± 0.22 1 × 10^−6 cm/s
  PappBA: 7.17 ± 0.68 1 × 10^−6 cm/s
MDCK cell monolayers; + Gly-Sar 10 mM (PEPT1)
  Modulatory effect: −
  PappAB: 4.59 ± 0.12 1 × 10^−6 cm/s
  PappBA: 7.50 ± 0.34 1 × 10^−6 cm/s
MDCK cell monolayers; + Ko143 0.01 mM (BCRP)
  Modulatory effect: −
  PappAB: 4.50 ± 0.48 1 × 10^−6 cm/s
MDCK cell monolayers; + MK571 0.05 mM (MRP2)
  Modulatory effect: +
MDCK cell monolayers; + NaN3 10 mM (ATP)
  Modulatory effect: +
MDCK cell monolayers; + Phloretin 0.3 mM (MCTs)
  Modulatory effect: −
  PappAB: 4.51 ± 0.16 1 × 10^−6 cm/s
  PappBA: 7.47 ± 0.27 1 × 10^−6 cm/s
MDCK cell monolayers; + Phloridzin 0.5 mM (SGLT1)
  Modulatory effect: +
  PappAB: 3.89 ± 0.36^* 1 × 10^−6 cm/s
MDCK cell monolayers; + Probenecid 0.2 mM (MRP2)
  Modulatory effect: +
  PappBA: 7.24 ± 0.27 1 × 10^−6 cm/s
MDCK cell monolayers; + Quinidine 0.1 mM (MDR1)
  Modulatory effect: −
MDCK cell monolayers; [10]
  Modulatory effect: +
MDCK cell monolayers; + TEA 5 mM (OCTs/OCTNs)
  Modulatory effect: +
MDCK cell monolayers; + Verapamil 0.1 mM (MDR1)
  Modulatory effect: −
  PappAB: 4.59 ± 1.34 1 × 10^−6 cm/s
MDCK cell monolayers; [11]
  PappAB: 4.60 ± 0.25 1 × 10^−6 cm/s
  PappBA: 7.32 ± 0.19 1 × 10^−6 cm/s
SGLT1
  Papp B→A at 120 min, 2 μM: 6.27 ± 0.78 ×10⁻⁶ cm/s
OCTs/OCTNs
  Papp A→B at 120 min, 2 μM: 4.15 ± 0.1 ×10⁻⁶ cm/s
  Papp B→A at 120 min, 2 μM: 6.96 ± 0.24 ×10⁻⁶ cm/s
[2]
  F-value (absolute bioavailability): 4.96%
[3]
  F-value (absolute bioavailability): 5.33%

## COc1ccc2c3c([nH]c2c1)C(C)=NCC3 [Harmaline]
[1]; read-out: ER
  efflux ratio at 120 min, 2 μM: 1.4
BCRP; [4]
  efflux ratio at 120 min, 2 μM: 1.16
BCRP; [5]
  Papp B→A at 120 min, 2 μM: 23.7 ± 1.11 ×10⁻⁶ cm/s
  efflux ratio at 120 min, 2 μM: 1.16
Na+/K+-ATPase
  Papp A→B at 120 min, 2 μM: 16.2 ± 1.45 ×10⁻⁶ cm/s
  Papp B→A at 120 min, 2 μM: 20.4 ± 0.22 ×10⁻⁶ cm/s
Na+/K+-ATPase; read-out: ER
  efflux ratio at 120 min, 2 μM: 1.26
MDR1; [6]
  Papp A→B at 120 min, 2 μM: 20.1 ± 0.76 ×10⁻⁶ cm/s
  Papp B→A at 120 min, 2 μM: 22.5 ± 1.12 ×10⁻⁶ cm/s
  efflux ratio at 120 min, 2 μM: 1.12
MDR1; [7]
  Papp B→A at 120 min, 2 μM: 21.9 ± 2.64 ×10⁻⁶ cm/s
  efflux ratio at 120 min, 2 μM: 1.05
OATs
  Papp A→B at 120 min, 2 μM: 19.2 ± 1.29 ×10⁻⁶ cm/s
  Papp B→A at 120 min, 2 μM: 19.2 ± 1.33 ×10⁻⁶ cm/s
OATs; read-out: ER
  efflux ratio at 120 min, 2 μM: 1
MRP2; [8]
  efflux ratio at 120 min, 2 μM: 1.15
MRP2; [9]
  efflux ratio at 120 min, 2 μM: 1.04
MDCK cell monolayers; + Apigenin 0.025 mM (BCRP)
  Modulatory effect: −
  PappAB: 20.44 ± 2.19 1 × 10^−6 cm/s
MDCK cell monolayers; + Cimetidine 0.05 mM (OATs)
  Modulatory effect: −
MDCK cell monolayers; + ES 0.05 mM (OATPs)
  Modulatory effect: −
  PappBA: 20.89 ± 0.79 1 × 10^−6 cm/s
MDCK cell monolayers; + Gly-Sar 10 mM (PEPT1)
  Modulatory effect: −
MDCK cell monolayers; + Ko143 0.01 mM (BCRP)
  Modulatory effect: −
  PappAB: 20.08 ± 0.41 1 × 10^−6 cm/s
  PappBA: 23.37 ± 0.73 1 × 10^−6 cm/s
MDCK cell monolayers; + MK571 0.05 mM (MRP2)
  Modulatory effect: −
  PappAB: 19.66 ± 0.65 1 × 10^−6 cm/s
  PappBA: 22.57 ± 0.14 1 × 10^−6 cm/s
MDCK cell monolayers; + NaN3 10 mM (ATP)
  Modulatory effect: +
  PappAB: 16.22 ± 0.84^* 1 × 10^−6 cm/s
  PappBA: 22.78 ± 1.65 1 × 10^−6 cm/s
MDCK cell monolayers; + Phloretin 0.3 mM (MCTs)
  Modulatory effect: −
  PappAB: 20.34 ± 0.71 1 × 10^−6 cm/s
MDCK cell monolayers; + Phloridzin 0.5 mM (SGLT1)
  PappAB: 15.96 ± 0.96^* 1 × 10^−6 cm/s
  PappBA: 20.59 ± 1.19 1 × 10^−6 cm/s
MDCK cell monolayers; + Probenecid 0.2 mM (MRP2)
  Modulatory effect: −
  PappAB: 21.01 ± 2.16 1 × 10^−6 cm/s
  PappBA: 21.86 ± 1.21 1 × 10^−6 cm/s
MDCK cell monolayers; + Quinidine 0.1 mM (MDR1)
  Modulatory effect: −
MDCK cell monolayers; [10]
  Modulatory effect: +
MDCK cell monolayers; + TEA 5 mM (OCTs/OCTNs)
  Modulatory effect: +
MDCK cell monolayers; + Verapamil 0.1 mM (MDR1)
  Modulatory effect: −
  PappAB: 20.96 ± 1.30 1 × 10^−6 cm/s
MDCK cell monolayers; [11]
  PappAB: 20.36 ± 1.82 1 × 10^−6 cm/s
  PappBA: 21.03 ± 2.11 1 × 10^−6 cm/s
SGLT1; read-out: ER
  efflux ratio at 120 min, 2 μM: 1.29
OCTs/OCTNs
  Papp A→B at 120 min, 2 μM: 16.5 ± 1.1 ×10⁻⁶ cm/s
  Papp B→A at 120 min, 2 μM: 22.8 ± 0.29 ×10⁻⁶ cm/s
OCTs/OCTNs; read-out: ER
  efflux ratio at 120 min, 2 μM: 1.38
[2]
  F-value (absolute bioavailability): 63.22%
[3]
  F-value (absolute bioavailability): 24.99%
